Test results reported in PubChem BioAssay AID743340 (Broad Institute, 2014).
Records with an inconclusive call do not appear. Calls of active or inactive are those of the source.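 How the source made its calls: active means compounds whose fitted AC50 for signal loss is at most twice the top valid dose tested; inconclusive means flat curve with 30 to 70% inhibition, or poor fit; inactive means the rest.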

What follows are molecules tested against Leucyl-cystinyl aminopeptidase (Mus musculus) (UniProt Q8C129) (assay: IRAP inhibitors, dose response, selectivity assay for ERAP1 modulator project, biochemical, Leu-AMC fluorescence, cherry-picked samples, set 2 (AID 743340)). Details: purified IRAP, Leu-AMC cleavage fluorescence, 1 h.
Chain of Leucyl-cystinyl aminopeptidase (Mus musculus) (Q8C129 whole entry, looked up): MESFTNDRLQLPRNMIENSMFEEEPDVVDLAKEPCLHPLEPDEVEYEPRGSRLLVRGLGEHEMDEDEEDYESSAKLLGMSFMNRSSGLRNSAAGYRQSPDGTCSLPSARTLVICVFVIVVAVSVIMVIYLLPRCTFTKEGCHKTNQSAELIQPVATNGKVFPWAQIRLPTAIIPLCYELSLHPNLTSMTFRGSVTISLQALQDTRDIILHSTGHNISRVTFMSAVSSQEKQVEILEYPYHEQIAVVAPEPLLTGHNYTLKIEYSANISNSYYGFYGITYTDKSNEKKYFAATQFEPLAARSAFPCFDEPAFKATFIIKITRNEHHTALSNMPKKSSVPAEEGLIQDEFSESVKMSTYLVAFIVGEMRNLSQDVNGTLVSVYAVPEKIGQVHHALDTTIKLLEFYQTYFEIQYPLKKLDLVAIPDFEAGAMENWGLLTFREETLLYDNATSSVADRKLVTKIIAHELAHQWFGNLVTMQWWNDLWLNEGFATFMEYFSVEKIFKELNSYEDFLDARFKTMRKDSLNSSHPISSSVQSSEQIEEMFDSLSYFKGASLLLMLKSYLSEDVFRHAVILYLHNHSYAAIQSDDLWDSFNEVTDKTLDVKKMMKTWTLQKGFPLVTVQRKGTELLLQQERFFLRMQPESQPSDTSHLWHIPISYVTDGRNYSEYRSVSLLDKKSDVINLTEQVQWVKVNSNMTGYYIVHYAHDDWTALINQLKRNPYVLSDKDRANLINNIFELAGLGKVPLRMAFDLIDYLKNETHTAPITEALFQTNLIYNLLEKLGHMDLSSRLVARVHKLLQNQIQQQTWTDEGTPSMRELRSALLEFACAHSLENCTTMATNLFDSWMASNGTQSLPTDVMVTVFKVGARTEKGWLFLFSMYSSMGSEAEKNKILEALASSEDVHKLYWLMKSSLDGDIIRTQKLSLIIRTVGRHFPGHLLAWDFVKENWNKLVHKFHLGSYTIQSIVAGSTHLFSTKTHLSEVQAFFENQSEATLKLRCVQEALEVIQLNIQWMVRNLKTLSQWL
`CC(C)[C@@H](C(=O)N[C@@H](CCc1ccc(O)cc1)C(=O)O)N(C)C(=O)[C@H](CO)NC(=O)[C@@H](O)[C@H](N)CCCCCCCCl` was tested, and the AC50 was 0.0449 µM. `CCCN(C)C[C@@H]1OCCCC[C@@H](C)Oc2ccc(NS(=O)(=O)c3ccc(OC)cc3)cc2C(=O)N([C@H](C)CO)C[C@@H]1C` gave an AC50 of 11.2 µM.

Same assay, conditions: purified IRAP, Leu-AMC cleavage fluorescence, 1 h; at 2.6 µM (top of the series)
In the case of `C[C@@H]1CCCCO[C@@H](CN(C)C(=O)CCC(F)(F)F)[C@@H](C)CN([C@@H](C)CO)C(=O)c2cc(NS(=O)(=O)c3ccccc3)ccc2O1`, the “activity change, negative = inhibition” value is reported as “inactive”.

Same assay, conditions: purified IRAP, Leu-AMC cleavage fluorescence, 1 h; at 5 µM (top of the series)
With `CCCN(C)C[C@@H]1OCCCC[C@@H](C)Oc2ccc(NS(=O)(=O)c3ccc(C)cc3)cc2C(=O)N([C@@H](C)CO)C[C@@H]1C` the “activity change, negative = inhibition” value was “inactive”.

Same assay, conditions: purified IRAP, Leu-AMC cleavage fluorescence, 1 h; at 5.6 µM (top of the series)
With `COc1ccc(S(=O)(=O)N(C)C[C@@H]2Oc3ncccc3C(=O)N([C@H](C)CO)C[C@@H]2C)cc1` the “activity change, negative = inhibition” value was “inactive”.

Same assay, conditions: purified IRAP, Leu-AMC cleavage fluorescence, 1 h; at 11 µM (top of the series)
For `COc1ccc2c3c([nH]c2c1)[C@H](CO)N(Cc1cc(F)ccc1F)CC31CN(C)C1`, the “activity change, negative = inhibition” value was “inactive”. With `C[C@@H]1CCCCO[C@@H](CN(C)Cc2ccccc2)[C@H](C)CN([C@H](C)CO)C(=O)c2cc(NS(=O)(=O)c3cccs3)ccc2O1` the “activity change, negative = inhibition” value was “inactive”. For `C[C@H](CO)N1C[C@H](C)[C@H](CN(C)Cc2ccncc2)Oc2c(NC(=O)Nc3ccc(C(F)(F)F)cc3)cccc2C1=O`, the “activity change, negative = inhibition” value was “inactive”. For `Cc1noc(C)c1NC(=O)N(C)C[C@@H]1Oc2c(NC(=O)Nc3ccc(F)cc3)cccc2C(=O)N([C@H](C)CO)C[C@@H]1C`, the “activity change, negative = inhibition” value was “inactive”. In the case of `COc1ccc(CN(C)C[C@@H]2OCCCC[C@@H](C)Oc3ccc(NS(=O)(=O)c4cccs4)cc3C(=O)N([C@H](C)CO)C[C@H]2C)cc1`, the “activity change, negative = inhibition” value is reported as “inactive”. In the case of `COc1ccc(CN(C)C[C@@H]2OCCCC[C@H](C)Oc3ccc(NS(=O)(=O)c4cccs4)cc3C(=O)N([C@H](C)CO)C[C@@H]2C)cc1`, the “activity change, negative = inhibition” value is reported as “inactive”. With `C[C@@H]1CCCCO[C@H](CN(C)Cc2ccccc2)[C@H](C)CN([C@H](C)CO)C(=O)c2cc(NS(=O)(=O)c3ccccc3)ccc2O1` the “activity change, negative = inhibition” value was “inactive”. In the case of `NC(=NCCc1c[nH]c2ccccc12)NS(=O)(=O)c1cc(F)ccc1F`, the “activity change, negative = inhibition” value is reported as “inactive”. In the case of `C[C@@H]1CCCCO[C@@H](CN(C)CC2CC2)[C@@H](C)CN([C@H](C)CO)C(=O)c2cc(NS(=O)(=O)c3ccc(Cl)cc3)ccc2O1`, the “activity change, negative = inhibition” value is reported as “inactive”. With `Cc1ccccc1-c1ccc2c(c1)O[C@@H](CN(C)Cc1ccc(C(=O)O)cc1)[C@@H](C)CN([C@H](C)CO)S2(=O)=O` the “activity change, negative = inhibition” value was “inactive”. In the case of `C[C@H](CO)N1C[C@H](C)[C@H](CN(C)Cc2ccc(C(=O)O)cc2)Oc2c(NC(=O)Nc3ccccc3)cccc2C1=O`, the “activity change, negative = inhibition” value is reported as “inactive”. `COc1ccc(CN(C)C[C@@H]2OCCCC[C@H](C)Oc3ccc(NS(=O)(=O)c4cccs4)cc3C(=O)N([C@@H](C)CO)C[C@@H]2C)cc1` was tested, and the “activity change, negative = inhibition” value was “inactive”. For `C[C@@H]1CCCCO[C@H](CN(C)C)[C@H](C)CN([C@H](C)CO)C(=O)c2cc(NS(=O)(=O)c3ccc(Cl)cc3)ccc2O1`, the “activity change, negative = inhibition” value was “inactive”. `COc1ccc(NC(=O)Nc2cccc3c2O[C@H](CN(C)Cc2ccc(C(=O)O)cc2)[C@H](C)CN([C@H](C)CO)C3=O)cc1` was tested, and the “activity change, negative = inhibition” value was “inactive”. `C[C@@H]1CN([C@H](C)CO)C(=O)c2cc(NC(=O)Nc3ccc(F)cc3)ccc2O[C@H]1CN(C)Cc1ccc(C(=O)O)cc1` was tested, and the “activity change, negative = inhibition” value was “inactive”. In the case of `C[C@@H]1CCCCO[C@@H](CN(C)Cc2ccc(C(=O)O)cc2)[C@@H](C)CN([C@H](C)CO)C(=O)c2cc(NC(=O)Nc3cccc4ccccc34)ccc2O1`, the “activity change, negative = inhibition” value is reported as “inactive”.
